Structures can show the parent of a compound that is named as a salt.
Key:
[1] = test system: atopic dermatitis-like skin inflammation induced by repeated applications of MC903; assay: Model mice of MC903-induced atopic dermatitis-like skin inflammation: auricle appearance and auricular thickness; format: in vivo, C57BL/6N female mice; conditions: 10 μL of 5 mM topically to each side of left auricle daily for 10 days, MC903 every other day; vs MC903 + EtOH
Experimental: (§1) The effect of KUS121 application on atopic dermatitis was evaluated. For modeling atopic dermatitis, model mice of atopic dermatitis-like skin inflammation induced by repeated applications of MC903, an active vitamin D3 analog, were used. Eight-week-old C57BL/6N female mice were used (purchased from SHIMIZU Laboratory Supplies Co., Ltd.). Under isoflurane anesthesia, the following substances were applied for 10 days. After 10 μL of 5 mM KUS121 (solvent: 90% EtOH) or 90% EtOH was applied to each side of the left auricle, 10 μL of 100 μM MC903 (solvent: 100% EtOH) was applied on each side. From the start of the substance application, KUS121 or 90% EtOH was applied daily and MC903 was applied every other day. The auricular thicknesses were measured immediately before the substance application using a constant pressured thickness measuring instrument (Tecloc). The thicknesses were measured immediately before the first substance application and then every other day for ten days. In addition, the effect of KUS121 alone was evaluated by the following substance applications. To each side of the left auricle 10 μL of 5 mM KUS121 was applied daily and to each side of the right auricle 10 μL of 90% EtOH was applied daily. The auricular thicknesses were measured immediately before the first substance application and then every other day for ten days. A blood sample was collected from a buccal vein on day 11 from the first substance application (14 hours after the substance application on day 10). The blood was allowed to stand at room temperature for at least 30 minutes, the serum was separated by centrifugation (1500×g, 10 minutes), and the serum levels of immunoglobulins (IgE and IgG1) was measured using Elisa kit (Bethyl Laboratories).
The experiments were performed as in Example 1, except for KUS187 was used in place of KUS121. The appearance of the auricle was observed and the auricular thicknesses were measured. […] The mice applied with MC903 and treated with EtOH had skin redness, desquamation, and crust as well as increased auricular thickness.

Keratin 6a (Krt6a) = assay: Krt6a mRNA expression in auricular sections, real-time PCR; format: in vivo, C57BL/6N female mice; conditions: auricular sections day 11; Gapdh internal standard; 5 mM topical + MC903; vs MC903 + EtOH
Experimental: (§2) After the blood collection in Example 1, the mice were sacrificed by cervical dislocation and auricular sections were collected. Some of the auricular sections were paraffin-embedded and other sections were served for RNA extraction. The paraffin-embedded sections were observed by hematoxylin-eosin (HE) staining. RNA was extracted from the sections and cDNA was synthesized. The expression levels of various genes were analyzed by real-time PCR with SYBR Green using each cDNA as a template. Gapdh was used as an internal standard.

Filaggrin (Flg) = assay: Flg mRNA expression in auricular sections, real-time PCR; format: in vivo, C57BL/6N female mice; conditions: auricular sections day 11; Gapdh internal standard; 5 mM topical + MC903; vs MC903 + EtOH and EtOH alone
Experimental: as §2

IgG1 = assay: Serum IgG1 level (Elisa kit) in MC903 model mice; format: in vivo, C57BL/6N female mice; conditions: serum on day 11; 5 mM topical daily + MC903; vs MC903 + EtOH
Experimental: as §1, with “From the start of the substance application, KUS121 or 90% EtOH was applied daily and MC903 was applied every other day.” left out, “To each side of the left auricle 10 μL of 5 mM KUS121 was applied daily and to each side of the right auricle 10 μL of 90% EtOH was applied daily.” left out, “A blood sample was collected from a buccal vein on day 11 from the first substance application (14 hours after the substance application on day 10).” left out

[2] = test system: irritant contact dermatitis induced by sodium dodecyl sulfate (SDS); assay: Model mice of SDS-induced irritant contact dermatitis: auricular thickness; format: in vivo, C57BL6/J male mice; conditions: 5 mM topical daily for 4 days + 4% SDS daily; vs SDS + EtOH
Experimental: The effect of KUS121 application on irritant contact dermatitis was evaluated. For modeling irritant contact dermatitis, model mice of irritant contact dermatitis induced by sodium dodecyl sulfate (SDS) was used. Ten-week-old C57BL6/J male mice (purchased from Oriental Bioservice, Inc) were used. The mice were anesthetized by subcutaneously injecting 150 μL of three types of mixed anesthesia. Under anesthesia the following substances were applied for 4 days. After 10 μL of 5 mM KUS121 or 90% EtOH was applied to each side of the left auricle, 10 μL of 4% SDS was applied on each side. The substances were applied daily and the auricular thicknesses were measured immediately before the substance applications.

KLK7 = KLK7 mRNA expression in auricular sections of MC903 model mice; format: in vivo, C57BL/6N female mice; conditions: mice treated as in Example 1; 5 mM topical + MC903; vs MC903 + EtOH
Experimental: as §1, with “From the start of the substance application, KUS121 or 90% EtOH was applied daily and MC903 was applied every other day.” left out, “To each side of the left auricle 10 μL of 5 mM KUS121 was applied daily and to each side of the right auricle 10 μL of 90% EtOH was applied daily.” left out, “A blood sample was collected from a buccal vein on day 11 from the first substance application (14 hours after the substance application on day 10).” left out, “Laboratories). […]” for “Laboratories).”

IgE = assay: Serum IgE level (Elisa kit) in MC903 model mice; format: in vivo, C57BL/6N female mice; conditions: serum on day 11; 5 mM topical daily + MC903; vs MC903 + EtOH
Experimental: as §1, with “From the start of the substance application, KUS121 or 90% EtOH was applied daily and MC903 was applied every other day.” left out, “To each side of the left auricle 10 μL of 5 mM KUS121 was applied daily and to each side of the right auricle 10 μL of 90% EtOH was applied daily.” left out, “A blood sample was collected from a buccal vein on day 11 from the first substance application (14 hours after the substance application on day 10).” left out

[3] = test system: epidermal thickening and infiltration of inflammatory cells into the dermis; assay: HE staining of auricular sections of MC903 model mice; format: in vivo, C57BL/6N female mice; conditions: auricular sections day 11; 5 mM topical daily + MC903; vs MC903 + EtOH
Experimental: as §2

[4] = test system: itching in atopic dermatitis-like skin inflammation induced by MC903; assay: Itching (scratching behavior) and auricular thickness in MC903 model mice, treatment started on day 6; format: in vivo, C57BL/6N female mice
Experimental: The effect of KUS121 application on itching was evaluated. For modeling itching, model mice of atopic dermatitis-like skin inflammation induced by repeated applications of MC903 were used. Eight-week-old C57BL/6N female mice (purchased from SHIMIZU Laboratory Supplies Co., Ltd.) were used. Under isoflurane anesthesia, the following substances were applied for 15 days. 10 μL of 100 μM MC903 was applied on each side of both auricles every three days. To each side of the left auricle 10 μL of 5 mM KUS121 was applied daily and to each side of the right auricle 10 μL of 90% EtOH was applied daily. The application of KUS121 or 90% EtOH was started on day 6 from the first substance application; KUS121 or 90% EtOH was applied at first and then MC903 was applied. On day 12 from the start of the treatment, 1 to 2 hours after the substance application, five mice awakened from anesthesia were left in a shooting box (SHINANO manufacturing CO., LTD, W 25×D 25×H 30 cm) and their behavior was recorded from above using a video camera (Victor). Scratching behavior was evaluated by counting the total number of ear contacts by the front paws and determining the total scratching time by the hind paws within one hour from the start of the recording. The data of the five mice were summed and the total values were adopted as the results.

skin barrier function = assay: Transepidermal water loss and auricular thickness in MC903-applied mice (skin barrier function); format: in vivo, C57BL6/N female mice; conditions: 5 mM topical daily for 12 days + MC903 every other day; vs MC903 + EtOH
Experimental: The effect of KUS121 application on skin barrier function was evaluated by determining transepidermal water loss. Six- to eight-week-old C57BL6/N female mice (purchased from Oriental Bioservice, Inc) were used. The mice were anesthetized by subcutaneously injecting 150 μL of three types of mixed anesthesia (1 mg/mL medetomidine hydrochloride, 5 mg/mL mitazolam, 5 mg/mL butorphanol tartrate, solvent: sterile distilled water). Under anesthesia the following substances were applied for 12 days. For each mouse 10 μL of 5 mM KUS121 was applied to each side of the left auricle and 10 μL of 90% EtOH was applied to each side of the right auricle. Some mice were additionally applied with 10 μL of 100 μM MC903 on each side of both auricles every other day; KUS121 or 90% EtOH was applied at first and then MC903 was applied. The levels of transepidermal water loss was determined using APO SCAN AS-VT100 (Asahi Techno Lab. ltd.). The auricular thicknesses were measured immediately before the first substance application and daily for subsequent 12 days. The levels of transepidermal water loss were determined on days 0, 2, 4, 6, 8, 10, 11, and 12 immediately before the substance applications in each day.

[5] = test system: psoriasis induced by repeated applications of 5% imiquimod cream; assay: Model mice of imiquimod-induced psoriasis: auricular thickness; format: in vivo, C57BL6/N female mice; conditions: 5 mM topical daily for 6 or 18 days + 5% imiquimod cream; vs imiquimod + EtOH
Experimental: The effect of KUS121 application on psoriasis was evaluated. For modeling psoriasis, model mice of psoriasis induced by repeated applications of 5% imiquimod cream was used. Six- to eight-week-old C57BL6/N female mice (purchased from Oriental Bioservice, Inc) were used. The mice were anesthetized by subcutaneously injecting 150 μL of three types of mixed anesthesia. Under anesthesia the following substances were applied for 6 or 18 days. After 10 μL of 5 mM KUS121 or 90% EtOH was applied to each side of the left auricle, 5 mg of 5% imiquimod cream (MOCHIDA PHARMACEUTICAL CO., LTD.) was applied on each side. KUS121 or 90% EtOH was applied daily and imiquimod cream was applied on days 0, 2, 4, 7, 9, 11, 14, and 16. The auricular thicknesses were measured immediately before the substance applications.

CCCCOc1c(C=O)cc(C)cc1-c1ccc(/N=N/c2cc(S(=O)(=O)O)c3ccccc3c2N)cn1 [KUS187, 4-amino-3-[6-(3-formyl-2-butoxy-5-methylphenyl)pyridine-3-ylazo] naphthalene-1-sulfonic acid sodium salt]
auricular thickness [1]: less increased auricular thickness | skin lesion (skin redness, desquamation, crust), appearance of auricle [1]: less skin lesion

Cc1cc(F)ccc1-c1ccc(/N=N/c2cc(S(=O)(=O)O)c3ccccc3c2N)cn1 [KUS121, 4-amino-3-[6-(4-fluoro-2-methylphenyl)pyridine-3-ylazo]naphthalene-1-sulfonic acid sodium salt]
Krt6a expression (messenger RNA) (Keratin 6a (Krt6a)): weaker | Flg expression (messenger RNA) (Filaggrin (Flg)): elevated | blood level of IgG1 (IgG1): lower | auricular thickness [1]: less increased auricular thickness | skin lesion (skin redness, desquamation, crust), appearance of auricle [1]: less skin lesion | auricular thickness [2]: the increase was suppressed | KLK7 expression (messenger RNA) (KLK7): the increase was suppressed | blood level of IgE (IgE): lower | lesions in HE staining (epidermal thickening, infiltration of inflammatory cells such as eosinophils into the dermis) [3]: suppressed more strongly | scratching behavior (number of ear contacts by front paws, scratching time by hind paws within one hour) ([4]; day 12, 5 mM topical daily from day 6, MC903 every three days, vs MC903 + EtOH): less | increase of auricular thickness ([4]; treatment started after 6 days from the start of MC903 application, 5 mM topical daily): suppressed | auricular thickness (skin barrier function): increases were suppressed | transepidermal water loss from auricular skin (skin barrier function): increases were suppressed | auricular thickness [5]: No difference
